Earlier results in US20030096243A1, “Methods and reagents for live-cell gene expression quantification” (priority 2000, published 2003).
Ends that are not written are not given here. * marks the point of attachment. FITC = O=C1OC2(c3ccc(O)cc3Oc3cc(O)ccc32)c2ccc(NC(=S)*)cc21

Columns and labels:
[1] = biological target: T1, N protein (Escherichia phage lambda, UniProt P03045); details: native sequence GCCCUGAAAAAGGGC (SEQ ID NO: 45)
T1 sequence (P03045 1-107): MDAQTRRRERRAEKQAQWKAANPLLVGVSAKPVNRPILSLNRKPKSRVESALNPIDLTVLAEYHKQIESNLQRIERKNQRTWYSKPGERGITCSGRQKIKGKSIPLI

[2] = system: boxB RNA stem-loop structure

Row | Substance | in vivo activity relative to the native boxB sequence [1] | affinity for boxB RNA [2]
1 | GCCCUAAAAAAGGGC (chemistry not given here) [SEQ ID NO: 44] | less than 1% | –
2 | GCCCUAGAAAAGGGC (chemistry not given here) [SEQ ID NO: 46] | ~90% | –
3 | N1-22: arginine-rich peptide comprising the first twenty-two amino acids of bacteriophage λ N protein ({FITC}-MDAQTRRRERRAEKQAQWKAANKG; not fully specified (residue 23); also: doubly labeled) | – | high affinity
